What all share (experiment): NCI-60 cell line screen, 48 h
Test [1] deals with MALME-3M melanoma.
The subject of test [2] is A549 NSCLC.
In test [3] the test system is UO-31 renal.
For test [4], the system named is MOLT-4 leukemia.
For test [5], the system named is NCI-H23 lung.
Test [6] deals with A498 renal.
The subject of test [7] is SN12C renal.
The test system of test [8] is MDA-N.
Test [9] relates to HOP-92 NSCLC.
Test [10] relates to HL-60(TB) leukemia.
Test [11] concerns SR leukemia.

This is an account of results in PubChem BioAssay (NCI).

Molecules are shown by their SMILES.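 Tested at 5 concentrations; 48 h exposure; 96-well plates; endpoints linearly interpolated, else capped at highest concentration. TGI: concentration producing complete growth inhibition.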 Where a SMILES comes first, the peptide text is derived from it. [ ]: non-standard residue; d: D form. The star is where a group is joined. ξ: configuration not given here. NMeF = CN[C@@H](Cc1ccccc1)C(=O)O; NMeV = CN[C@H](C(=O)O)C(C)C; ξNMeV = CNC(C(=O)O)C(C)C; Boc = CC(C)(C)OC(=O)*; OBn = c1ccc(CO*)cc1

For the compound `O=c1/c(=C/c2ccccn2)sc2nc3cc4c(cc3n12)OCCO4`, the TGI in test [1], in test [2], in test [3], in test [4], in test [5] and in test [6] was above 100 µM throughout. Moreover, the TGI in [7], in test [8] and in [9] was above 100 µM throughout.
With `CC(=O)[C@@]1(c2ccccc2)CC2(CCN(C)CC2)O[C@H]1C`, the TGI in [1], in test [2], in test [3], in test [4], in [5] and in test [6] was above 100 µM throughout. For the same compound, the TGI in test [7], in test [8] and in [9] was above 100 µM throughout.
With `COc1ccc([C@H]2CC3C(=O)N(c4ccc(OC)cc4)C(=O)C3c3[nH]c4ccccc4c32)cc1` (stereo not given in full), the TGI in test [1], in test [2], in test [3], in [4], in test [5] and in test [6] was above 100 µM each time. Further, the results for the TGI in test [7] and in [9] were above 100 µM and 78.4 µM, respectively.
Regarding `O=c1[nH]cnc2c1cnn2Cc1cnnn1COCCO`, the TGI in [1], in test [2], in test [3], in test [4], in test [10] and in [5] was above 100 µM throughout. For the same compound, the TGI in test [6], in test [7] and in test [9] was above 100 µM each time.
For `CN(C)CCC[N+]1=Nc2cccc3cccc(c23)N1`, the TGI in test [1] was above 100 µM; in test [2], above 100 µM; in test [3] it was above 100 µM; in test [11], 35.5 µM; in test [4] it was 62.4 µM; in test [10], 47.5 µM. The TGI in test [5] is above 100 µM; in test [6] it was 92.6 µM; in test [7] it was above 100 µM; in test [9], above 100 µM.
For `CC(C)C(C(=O)N(C)[C@H](C(=O)N1CCC[C@H]1C(=O)N(C)[C@@H](Cc1ccccc1)C(=O)OCc1ccccc1)C(C)C)N(C)C(=O)[C@@H](NC(=O)OC(C)(C)C)C(C)C` (stereo not given in full) (Boc-V[ξNMeV][NMeV]P[NMeF]-OBn), the TGI in [1] is above 100 µM; in [2], above 31.6 µM; in test [3], above 31.6 µM; in test [11] it was above 31.6 µM; in test [4], 21.3 µM; in test [10] it was 8.25 µM. Also, the TGI is above 100 µM in test [5], above 31.6 µM in [6], above 100 µM in [7] and 30.4 µM in test [9].
Regarding `COc1ccc(C2=NNC(=O)c3ccccc3N2c2nc(-c3cccs3)nc3cc(OC)c(OC)cc23)cc1`, the TGI in [1] was 6.92 µM; in test [2], above 100 µM; in test [3], 25 µM; in [11] it was above 100 µM; in test [4] it was above 100 µM; in test [5] it was above 100 µM. Besides, the TGI in test [6] worked out at 10.5 µM; in test [7], 11.1 µM; in [9], 7.97 µM.
Take `Brc1ccc(-c2cc3c(cc2C2SCCS2)OCO3)cc1`: the TGI in test [1] was above 100 µM; in test [2] it was above 100 µM; in test [3], 90.4 µM; in test [11], 86.9 µM; in test [4], above 100 µM; in [10] it was above 100 µM. For the same compound, the TGI is above 100 µM in [5], 93.3 µM in test [6] and above 100 µM in test [7].
Take `O=C(NC1=C(Cl)C(=O)c2ccccc2C1=O)C(=O)C(C(=O)c1ccc2ccccc2c1)C1OC(=O)c2ccccc21` (stereo not given): the TGI in test [1] came to 4.16 µM; in test [2] it was 17.5 µM; in test [3] it was 29.4 µM; in test [11], 29.4 µM; in test [4], 14.1 µM; in test [10], 7.6 µM. Also, the TGI in test [5] was determined as 13.4 µM; in [6] it was 18.4 µM; in test [7], 16.3 µM; in [9] it was 10.3 µM.
In the case of `O=C(CC(C(=O)c1cccs1)c1ccsc1)c1ccc(Cl)s1` (stereo not given), the TGI in test [1], in test [2], in [3], in test [11], in [4] and in [10] was above 100 µM throughout. Further, the TGI in [5], in test [6] and in test [7] was above 100 µM each time.
Take `Cc1nn2c(c1C#N)NNc1c-2sc(=N)nnc1=O`: the TGI in test [1], in test [2], in [3], in test [11], in test [4] and in [10] was above 100 µM in each case. Besides, the TGI in [5], in test [7] and in test [9] was above 100 µM each time.
In the case of `Cc1cc(C)c2c(n1)S(=O)(=O)N(CCCN1CCN(c3cccc(Cl)c3)CC1)/C(=C(\O)c1ccc(Br)cc1)C2=O`, the TGI was above 100 µM in test [1]; 71 µM in [2]; 48.9 µM in test [3]; above 100 µM in test [11]; 60.2 µM in test [4]; 45.4 µM in [10]. The TGI in test [5] was above 100 µM; in test [6], above 100 µM; in test [7], 53.2 µM; in test [9], 59.6 µM.
As to `O=S(=O)(c1ccccc1)c1ccc(-c2nc(-c3ccc4c(c3)Sc3ccccc3S4)cs2)cc1`, the TGI in test [1], in [2], in test [3], in test [11], in [4] and in [10] was above 100 µM in each case. In addition, the TGI in test [5] was 36.1 µM; in [7], above 100 µM; in test [9] it was 62.9 µM.
